The source of these data is US20150202179A1, “FATTY ACID DERIVATIVES FOR USE IN A METHOD OF TREATING DEPRESSION AND ASSOCIATED CONDITIONS” (YISSUM RESEARCH DEVELOPMENT COMPANY OF THE HEBREW …, priority 2012, published 2015).

Like-named read-outs stand apart in the source and are kept apart here.

Experiment [1] can be described thus: Weight and food consumption in OB/OB mice which lack the leptin gene. It is filed as in vivo. From the text:
Thus the compounds of the invention can be used to treat conditions that are mediated by the enhancement of leptin levels. In obesity there is high leptin level however the leptin receptors are not responding. High CNS leptin level has anti-depression effect however, if there is tolerance there is no anti depression effect.

Experiment [2] can be described thus: Open Field Test, compound X dose study. It is filed as in vivo, BALB/c mice. The conditions noted are these: 10 mg/kg i.p.; day 25; better than the other concentrations. The protocol: 50, 2 month old BALB/c mice, 10 mice per group, on ad libitum diet were divided to 5 experimental groups with equal weight. On the 2, 3, 4, 5, 9, 11, 16, 18, 23, 25, 29, 31 days mice were administered with either vehicle or compound x 0.1, 1, 10 mg/kg i.p. or imipramine 10 mg/kg Open Field Test was evaluated on day 25. The more time they spent on the […] the less depressed.

Experiment [3] concerns Norepinephrine (NE) levels. As to the kind of experiment: Norepinephrine (NE) determination in brain tissue by HPLC with electrochemical detection. It is filed as in vivo, mice. The conditions noted are these: for NE: ng/g wet tissue +/− SEM; for norepinephrine levels in the hippocampus vs. control / norepinephrine levels in the hypothalamus vs. control: result in words. The protocol:
Solution of DHBA as internal standard in the concentration of: 1 μg/ml in 0.1M perchloric acid, were prepared. Standard solutions of NE and 5HT in the concentration of 1-0.1 μg/ml in 0.1M perchloric acid were prepared.
Tissues (hypothalamus and hippocampus) obtained from 6-8 mice were dissected on ice surface and kept at −80 C. Hypothalamus (HT) or hippocampus (HC) from 1 mice were weighted (weight of HT −10-20 mg, HC 30-40 mg) and placed in eppendorf micro-centrifuge tube, 1.5 ml. To each tube was added 120-160 μl of ice cold solution of Perchloric acid and DHBA, homogenized in ice bath on Sonics vibra cell, 3×20 sec., 0.4 watts and centrifuged at 14,000×g at 4° C. 10 min. Supernatant gained was stored in ice before analysis.
The HPLC system consisted of Jasco PU-980 pump, Jasco AS-950-10 autosampler cooled at 4° C., H3 ODS-125A 3 μm 125 mm×4.6 mm i.d. analytical column (Hichrom, UK) were used. Electrochemical detector Coulochem ESA 5100A with analytical cell model 5011 was used for control detector voltage and record the current. Working electrode was set at potential +350 mV. Control and data collection/processing were handled through Borwin chromatography software.
The mobile phase composition: A stock buffer was prepared as follows: 20 mM sodium dihydrogenorthophosphate, EDTA 3 mg/l, 1-heptanesulfonic acid 1 g/l were dissolved in 1 liter deionized distilled water and buffered to pH 3.7 using concentrated phosphoric acid. To prepare the mobile phase buffer was mixed with acetonitrile (Baker HPLC analyzed) in the ratio 85:15 (v/v), filtered through a 0.2 μm membrane filter and degassed under vacuum after mixing. Mobile phase flow rate 1 ml/min. Injection volume 20 μl, retention time for DHBA 4.2 min., norepinephrine—3.1 min., 5HT 8.6 min. For calibration curve 1 ug/ml solution of DHBA together with 1.0-0.1 μg/ml solutions of 5HT and NE were used. The ratio between 5HT or NE and DHBA used to calculate the level of 5HT and NE in the sample. Date are given in ng/g wet tissue +/−SEM.

Experiment [4] in a line: Tail Suspension Test, compound X dose study. The conditions noted are these: 10 mg/kg i.p.; day 23; more than imipramine and other concentrations. It is filed as in vivo, BALB/c mice. From the text: Tail suspension test (TST): Animals are suspended upside down by adhesive tape placed 1 cm from the tail tip. The elevation of the animal is 50 cm from the nearest surface. […] Statistical analysis compares the magnitude of immobility (in seconds) between different treatment groups. In this test, antidepressants characteristically cause an increase of the time fraction spent by the animal as active at the expense of the inactivity period.
50, 2 month old BALB/c mice, 10 mice per group, on ad libitum diet were divided to 5 experimental groups with equal weight. On the 2, 3, 4, 5, 9, 11, 16, 18, 23, 25, 29, 31 days mice were administered with either vehicle or compound x 0.1, 1, 10 mg/kg i.p. or imipramine 10 mg/kg.

Experiment [5] is described as follows: Forced Swim Test, compound X dose study. It is filed as in vivo, BALB/c mice. The following applies: day 11. On the procedure: Forced swim test (FST): The animal is placed in a circular, transparent, plexiglass tank measuring 21 cm in diameter and 46 cm in height containing water 15 cm high, maintained at 23-25° C. […] Also measured is the latency period, the time elapsing, for each animal from immersion in the water tank until the first occurrence of immobility. Since climbing activity is minimal in mice, […].
50, 2 month old BALB/c mice, 10 mice per group, on ad libitum diet were divided to 5 experimental groups with equal weight. On the 2, 3, 4, 5, 9, 11, 16, 18, 23, 25, 29, 31 days mice were administered with either vehicle or compound X 0.1, 1, 10 mg/kg i.p. or imipramine 10 mg/kg. Forced Swim Test was evaluated on day 11.

As to `CCCCCCCC/C=C\CCCCCCCC(=O)N[C@H](CO)C(C)C` [Compound 1, oleoyl-L-valinol amide], in experiment [1], the food consumption result was “did not change”. Further, the “weight (weight loss)” value is “did not change” in experiment [1], “not body weight” in experiment [1] (listed as OVA) and “do not produce weight loss” in experiment [1] (listed as X). The “motor activity in Open Field Test” value in experiment [2] is recorded as “improved motor activity like the impramine”. The entries for the “NE” value in experiment [3] (Hippocampus) and in experiment [3] (Hypothalamus) were 283.28 ± 24 ng/g and 1090 ± 10.4 ng/g, respectively. The results for the “norepinephrine levels in the hippocampus vs. control” value in experiment [3] and in experiment [3] (listed as X) were “significantly enhanced” and “increase significantly”, respectively. Besides, the figures for the “norepinephrine levels in the hypothalamus vs. control” value in experiment [3] and in experiment [3] (listed as X) were “significantly enhanced” and “increased significantly”, respectively. The “motor activity in Tail Suspension Test” value in experiment [4] is “improved significantly motor activity”. Besides, the “swimming activity in forced swim test” value in experiment [5] (0.1 mg/kg i.p.) is “improved significantly swimming activity”; in experiment [5] (1 mg/kg i.p., better than imipramine 10 mg/kg), “improved significantly swimming activity”; in experiment [5] (10 mg/kg i.p., better than imipramine 10 mg/kg) it was “improved significantly swimming activity”.
